From US9560848B2, “Method and compositions for biofouling deterrence” (Clemson University, priority 2008, dated 2017)

Key:
Oyster larvae [1] = conditions: Coon, Bonar et al 1986; cited from earlier work
Oyster larvae [2] = test: Treatment of oyster larvae with micromolar concentrations of noradrenalin; type: in vivo
Source text: Effect of Treatment of Oyster Larvae with Micromolar Concentrations of Noradrenalin

[3] = system: cyprids of the barnacle Balanus amphitrite; type: in vivo
Protocol: Barnacle cyprids were challenged with 30-100 micro molar ranges of noradrenalin. Barnacle cyprids were monitored and assayed over period of 120 hours (5 days). Cyprid metamorphosis was imaged at 24, 48, 96, 120 hour intervals. Images were taken at each intervals and samples preserved for SEM analysis. On the last day of the experiments the metamorphosed barnacles were assayed for viability. The experiments were repeated 4 times with 3 replicates per experiment. […] Post NA treatment, either by flash induction or by incubating the cyprids in ASW containing NA. […] The onset of ecdysis was observed between 24 hr and 48 hr post NA treatment. Metamorphosing juvenile barnacles were seen encased in bivalve cyprid carapace. The pumping action of the thorax similar to beating of cirri was also observed (Glenner and Høeg 1993). […] Some ecdysing barnacles were still encased in cyprid carapaces while others had shed the bivalve carapace. The cyprids that had shed carapace were presumed to have ‘grown’ out of it as opposed to have shed carapace voluntarily as observed in untreated attached cyprids (Glenner and Høeg 1993). […] Ninety-six hours post NA treatment, the operculum with tergal and scutal plates is well demarcated from the wall plates. In contrast, control barnacles can be seen fully calcified with well recognizable wall and opercular shell plates at around 24-48 hr post settlement. Thus the NA treated cyprids took 96 hr to fully metamorphose and calcify but remained unattached and un-cemented to the substratum.
Exploration of surfaces by invertebrate larvae is an important step leading to attachment and metamorphosis into juveniles. Oyster pediveliger larvae and barnacle cyprid larvae investigate surfaces using exploratory structures bearing an array of sensory cells. The effect of the neurotransmitter noradrenaline (NA) was investigated on the cyprids of the barnacle Balanus amphitrite. 1 day old cyprids were challenged with micro-molar concentrations of NA ranging from […] and assayed over 5 days. […] Remnants of cyprid organs such as the antennules were clearly visible in metamorphosed juveniles. […] Cyprids are compared to oyster larvae to understand the effects of NA on the signal transduction cascades involved in larval settlement and to explore NAs potential as a natural fouling deterrent. Materials and Methods One day old cypris larvae of the B. amphitrite were challenged with […] of noradrenaline. Cyprids were challenged in two different ways. One group was flash challenged for 3 hours then washed with artificial sea water (ASW) and incubated in ASW free of NA for the remaining duration of the experiment. The second group was incubated with NA for 24 hours then washed and incubated in ASW for the remaining duration of the experiment. Barnacle cyprids were monitored and assayed over period of 120 hours (5 days). Cyprid metamorphosis was imaged at 24, 48, 96, 120 hour intervals. Images were taken at each intervals and samples preserved for SEM analysis. The cyprid larvae were imaged using, Zeiss discovery V12 stereo-microscope, Nikon AZ100 stereo-macrosope and the Hitachi-4800 field emission scanning electron microscope. On the last day of the experiments the metamorphosed barnacles were assayed for viability. Viability was ascertained by observing the movement of cirri and ability of the metamorphosed barnacles to feed normally. The experiments were repeated 4 times with 3 replicates per experiment.

Compound: NCC(O)c1ccc(O)c(O)c1 (racemic) [NA, DL-noradrenaline]
- swimming of NA treated oyster larvae (Oyster larvae [1]): stopped swimming and sank to the bottom of petri dishes
- metamorphosis of treated oyster larvae (Oyster larvae [2]): metamorphose into adult oysters without cementation
- settling behavior and cementation of oyster larvae (Oyster larvae [2]): complete disruption of the settling behavior and cementation
- viability and development of treated oysters (Oyster larvae [2]): viable and develop normally into adults
- metamorphosis of treated cyprids ([3]; 30-100 micro molar NA): metamorphosed into adults
- settling, attachment or cementation of cyprids ([3]; 30-100 micro molar NA, flash challenge 3 hours or 24 hours incubation, monitored 120 hours, listed as noradrenalin): prevented them from settling or attaching to a surface
- time to fully metamorphose and calcify ([3]; NA treated cyprids, controls 24-48 hr post settlement): 96 h
- swimming of cyprids post NA treatment ([3]; flash induction or incubation in ASW containing NA): stopped swimming and sank to the bottom
- appearance of juvenile barnacles compared to controls ([3]; in vivo): appeared to be normal
- onset of ecdysis post NA treatment ([3]; post NA treatment): 24 to 48 h
